Reference: patent publication EP3133117A1, “WATER-BASED POLYMER SYSTEM FOR LABELING ADHESIVE APPLICATIONS” (Henkel AG & Co. KGaA, priority 2015, dated 2017)
Values after ≈ are worked out from the molar mass of the structure shown. Like-named read-outs stand apart in the source and are kept apart here.

What was measured:
[1] = Solubility of the organic additives in water; settings: for solubility: water, 25 °C, thermodynamic from solid
Description: For the determination of the solubility of the organic additives described herein, the GC-based method described above in connection with the solubilities of the monomers may be used. […] The method is basically measuring residual amount of CD in a saturated solution after drying.

[2] = cyclodextrins; values taken from Sabadini et al.; 25°C; cited from earlier work

Row | SMILES | solubility [1] [mg/mL] | Solubility in water [2] [mg/mL] | also measured
1 | CC(=O)OCC(COC(C)=O)OC(C)=O [1,2,3-propanetriol triacetate] | 72 |  | 
2 | OCCCCO [1,4-butandiol] |  |  | Solubility in water ([1]; additives other than cyclodextrins, 25°C): miscible
3 | CCCCCO [1-pentanol] | 22.4 (≈ 254 mM) |  | 
4 | CCCCCCCO [Heptanol] | 1.74 (≈ 15 mM) |  | 
5 | OC[C@H]1O[C@@H]2O[C@H]3[C@H](O)[C@@H](O)[C@@H](O[C@H]4[C@H](O)[C@@H](O)[C@@H](O[C@H]5[C@H](O)[C@@H](O)[C@@H](O[C@H]6[C@H](O)[C@@H](O)[C@@H](O[C@H]7[C@H](O)[C@@H](O)[C@@H](O[C@H]1[C@H](O)[C@H]2O)O[C@@H]7CO)O[C@@H]6CO)O[C@@H]5CO)O[C@@H]4CO)O[C@@H]3CO [α-cyclodextrin] |  | 129.5 (≈ 133 mM) | 
6 | OC[C@H]1O[C@@H]2O[C@H]3[C@H](O)[C@@H](O)[C@@H](O[C@H]4[C@H](O)[C@@H](O)[C@@H](O[C@H]5[C@H](O)[C@@H](O)[C@@H](O[C@H]6[C@H](O)[C@@H](O)[C@@H](O[C@H]7[C@H](O)[C@@H](O)[C@@H](O[C@H]8[C@H](O)[C@@H](O)[C@@H](O[C@H]9[C@H](O)[C@@H](O)[C@@H](O[C@H]1[C@H](O)[C@H]2O)O[C@@H]9CO)O[C@@H]8CO)O[C@@H]7CO)O[C@@H]6CO)O[C@@H]5CO)O[C@@H]4CO)O[C@@H]3CO [γ-cyclodextrin] |  | 249.2 (≈ 192 mM) | 
